Patent publication US20260258084A1, “New Peptides as Selective IL-23 Receptor Antagonists” (Sanofi, priority 2022, published 2026)
Converted amounts (≈) assume the structure as drawn. Where two headings read alike, the source gives them in different places. Starred links: 1 amine or outer side, 2 acyl side, 3 side chain; linkers in the order of their positions; H or OH if unused. Positions of bridges follow the written chain, without caps; N, C: chain ends. Non-standard residues stand in square brackets, D forms with d. Residues, ends and D or L forms follow the SMILES beside them. *: point of attachment. X3 = CN(CCCCC(=O)N[C@@H](CS[*:2])C(=O)[*:1])[*:3]; Trp(7-Me) = Cc1cccc2c(C[C@H](N)C(=O)O)c[nH]c12; X1 = O=C(CCCCN[*:3])N[C@@H](CS[*:2])C(=O)[*:1]; 2Nal = N[C@@H](Cc1ccc2ccccc2c1)C(=O)O; AEF = NCCOc1ccc(C[C@H](N)C(=O)O)cc1; αMeL = CC(C)C[C@](C)(N)C(=O)O; Thp = NC1(C(=O)O)CCOCC1; Me2NCH2CH2 = CN(C)CC*; Aib = CC(C)(N)C(=O)O; Ava = NCCCCC(=O)O; Sar = CNCC(=O)O

Legend:
[1] = tested on: IL-23 induced STAT3 signaling in HEK-Blue™ IL-23 cells; assay: IL-23 induced STAT3 signaling in HEK-Blue IL-23 cells (SEAP reporter); assay type: cell-based; details: human IL23 0.25 ng/ml, read-out: pSTAT3
How it was run: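 HEK-Blue IL-23 cells (10,000/well) pre-incubated 60 min at 37 °C with serially diluted peptides, then stimulated overnight with human IL-23 (0.25 ng/ml final). STAT3-driven SEAP in supernatant detected with QUANTI-Blue after 45 min at RT (OD 620-655 nm); dose-response curves fitted.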

[2] = target: T1, human interleukin-23 receptor (recombinant human IL-23R-Fc chimera) (Homo sapiens, UniProt Q5VWK5); assay: Human ELISA IL23/IL23R (assay for specific human IL23R antagonists); assay type: binding; details: Table 10; read-out: Human ELISA IL23/IL23R IC50
T1 construct: Fc (IgG Fc fusion)
How it was run: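 Plates coated overnight at 4 °C with human IL23 ([…]), blocked, then serially diluted peptides added with recombinant human IL-23R-Fc (0.1 μg/ml final) for 60 min at room temperature. Bound receptor detected with anti-human IgG1-HRP and fluorogenic peroxidase substrate.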

[3] = Solubility testing of peptides at different pH; assay type: physicochemical; details: target concentration 1 mg/ml, 2 hours agitation
How it was run: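 Solid obtained by drying down DMSO stock was taken up at 1 mg/mL in 50 mM HCl pH 1.2 or 50 mM phosphate pH 6.5, 7.4 or 9.0, agitated gently for 2 h, then filtered (0.45 μm). Solubility by UPLC-UV peak area against a DMSO reference standard curve, corrected for extinction coefficients.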

Pepsin = tested on: T2, Pepsin; assay: Protease stability in simulated gastric fluid (Pepsin-SGF, FaSSGF); assay type: in vitro ADME; details: simulated gastric fluid with pepsin (Pepsin-SGF), 60 min, 1 μM peptide, 37° C., read-out: FaSSGF 60 (min), remaining percent of peptide
T2 construct: purchased Merck Millipore
How it was run: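 Peptides at 1 μM final in pepsin-containing SGF at 37° C, sampled at 0, 60, 120 and 240 min, quenched with ethanol (0.1% HCOOH). Analysed by LCMS/MS; percent remaining from peak area relative to time 0 (set to 100%).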

Pancreatin = assay: Protease stability in simulated intestinal fluid (Pancreatin-SIF, FaSSIF); assay type: in vitro ADME; details: 1 μM peptide, 37° C.; for remaining at 1 h, 1 µM: 60 min, read-out: FaSSIF 60 (min), remaining percent of peptide; for remaining at 2 h, 1 µM: 120 min, read-out: FaSSIF 120 (min), remaining percent of peptide; for remaining at 4 h, 1 µM: 240 min, read-out: FaSSIF 240 (min), remaining percent of peptide
How it was run: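 Peptide (1 μM final) was incubated at 37° C in simulated intestinal fluid containing pancreatin (1 mg per 10 mL SIF concentrate). Samples were quenched with ethanol/0.1% HCOOH at 0, 60, 120 and 240 min and analysed by LC-MS/MS. Percent remaining is the peak area relative to time 0 (100%).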

[4] = 50 mM HCl buffer, 50 mM HCl pH 1.2, read-out: Solubility Buffer pH 1.2
[5] = 50 mM phosphate buffer pH 6.5, read-out: Solubility Buffer pH 6.5
[6] = 50 mM phosphate buffer pH 7.4, read-out: Solubility Buffer pH 7.4
[7] = 50 mM phosphate buffer pH 9.0, read-out: Solubility Buffer pH 9.0

SMILES	IC50 [1] [nM]	IC50 [2] [nM]	solubility at 2 h [3, 4] [µg/mL]	solubility at 2 h [3, 5] [µg/mL]	solubility at 2 h [3, 6] [µg/mL]	solubility at 2 h [3, 7] [µg/mL]	remaining at 1 h, 1 µM (Pepsin) [%]	remaining at 1 h, 1 µM (Pancreatin) [%]	remaining at 2 h, 1 µM (Pancreatin) [%]	remaining at 4 h, 1 µM (Pancreatin) [%]
CC(=O)NCCCC[C@@H]1NC(=O)[C@H](Cc2c[nH]c3c(C)cccc23)NC(=O)[C@H]([C@@H](C)O)NC(=O)[C@H](CC(N)=O)NC(=O)[C@@H]2CSSC[C@H](NC1=O)C(=O)N[C@@H](Cc1ccc(OCCN(C)C)cc1)C(=O)N[C@@H](Cc1ccc3ccccc3c1)C(=O)N[C@@](C)(CC(C)C)C(=O)N[C@H](C(=O)N[C@@H](CC(N)=O)C(=O)N[C@@H](Cc1c[nH]cn1)C(=O)N(C)CC(N)=O)CCC(=O)NCCCCC(=O)N2 [compound 47] ([Ava]CNT[Trp(7-Me)]K(Ac)CY(Me2NCH2CH2)[2Nal][αMeL]ENH[Sar]-NH2; disulfide 2-7; lactam N-11)	0.57	0.31	≥ 1000	≥ 950	540 (≈ 284 µM)	110 (≈ 57.9 µM)	96	87	85	82
CC(=O)N[C@H]1CCCCNC(=O)[C@@H]2CSSC[C@H](NC(=O)[C@H](CCC(N)=O)NC(=O)[C@H](Cc3c[nH]c4ccccc34)NC1=O)C(=O)N[C@@H](Cc1ccc(OCCN(C)C)cc1)C(=O)N[C@@H](Cc1ccc3ccccc3c1)C(=O)NC(C)(C)C(=O)N[C@H](C(=O)N[C@@H](C)C(=O)NCC(N)=O)CCC(=O)NCCCCC(=O)N2 [compound 32] (Ac-KWQCY(Me2NCH2CH2)[2Nal][Aib]EAG-NH2; linker 1-4-8 via X1)	20.5	0.48	740 (≈ 474 µM)	≥ 880	≥ 870	170 (≈ 109 µM)	78	89	77	55
CC(=O)NCCCC[C@@H]1NC(=O)[C@H](Cc2c[nH]c3c(C)cccc23)NC(=O)[C@H]([C@@H](C)O)NC(=O)[C@H](CC(N)=O)NC(=O)[C@@H]2CSSC[C@H](NC1=O)C(=O)N[C@@H](Cc1ccc(OCCN(C)C)cc1)C(=O)N[C@@H](Cc1ccc3ccccc3c1)C(=O)NC1(CCOCC1)C(=O)N[C@H](C(=O)N[C@@H](CC(N)=O)C(=O)N[C@@H](Cc1c[nH]cn1)C(=O)N(C)CC(N)=O)CCC(=O)NCCCCC(=O)N2 [compound 46] ([Ava]CNT[Trp(7-Me)]K(Ac)CY(Me2NCH2CH2)[2Nal][Thp]ENH[Sar]-NH2; disulfide 2-7; lactam N-11)	0.84	0.36	≥ 1080	≥ 1060	≥ 1060	≥ 1030	100	89	82	81
CC(=O)N[C@H]1CCCCNC(=O)[C@@H]2CSSC[C@H](NC(=O)[C@H](CCC(N)=O)NC(=O)[C@H](Cc3c[nH]c4ccccc34)NC1=O)C(=O)N[C@@H](Cc1ccc(OCCN)cc1)C(=O)N[C@@H](Cc1ccc3ccccc3c1)C(=O)NC(C)(C)C(=O)N[C@H](C(=O)N[C@@H](C)C(=O)N[C@H](CC(C)C)C(N)=O)CCC(=O)N(C)CCCCC(=O)N2 [compound 19] (Ac-KWQC[AEF][2Nal][Aib]EA[dL]-NH2; linker 1-4-8 via X3)	88.3	0.74	10 (≈ 6.24 µM)	20 (≈ 12.5 µM)	< 10	< 10	79	92	81	76
